Experimental data published in patent US20050289668A1, “Plants with increased levels of one or more amino acids” (priority 2003, published 2005).
Substitutions are numbered along the chain they refer to.

Tests used:
Format in all cases: biochemical
[1] = biological target: T1, E. coli threonine deaminase (ilvA) variant L481Q, SEQ ID NO: 9 (Escherichia coli, UniProt P04968, A120R/A140R/G195C/G334V/L481Q/V121L); assay: Threonine deaminase steady state kinetics, L481Q
T1 construct: made in house; host or cells: E. coli (pSE380, crude extract)
T1 sequence (P04968 1-514 A120R/V121L/A140R/G195C/G334V/L481Q): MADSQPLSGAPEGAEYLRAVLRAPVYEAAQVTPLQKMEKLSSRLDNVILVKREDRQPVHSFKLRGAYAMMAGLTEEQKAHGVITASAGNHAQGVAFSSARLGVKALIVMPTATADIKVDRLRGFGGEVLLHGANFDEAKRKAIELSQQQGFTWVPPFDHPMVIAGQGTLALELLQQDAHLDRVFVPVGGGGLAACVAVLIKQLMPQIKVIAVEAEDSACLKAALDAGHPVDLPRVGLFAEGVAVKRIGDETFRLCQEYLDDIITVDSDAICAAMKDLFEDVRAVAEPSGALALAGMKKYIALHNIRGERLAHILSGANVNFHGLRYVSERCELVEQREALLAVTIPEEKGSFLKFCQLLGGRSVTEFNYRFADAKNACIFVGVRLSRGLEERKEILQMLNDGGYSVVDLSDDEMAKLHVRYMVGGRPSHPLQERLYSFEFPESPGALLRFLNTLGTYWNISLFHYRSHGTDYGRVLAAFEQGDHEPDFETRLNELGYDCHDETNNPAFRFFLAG
Procedure: (§1) Before conducting further transformation experiments using the isolated ilvA alleles in transgenic plants, each allele was over-expressed in E. coli to determine its kinetic parameters. Kinetics data on threonine deaminases containing various mutations, and a comparison to data available for threonine deaminases from Arabidopsis, are provided in Table 4. The E. coli ilvA481 variants were subcloned into pSE380 (Invitrogen, Carlsbad, Calif.) and expression was induced with 0.2 mM IPTG at 37° C. for 3 hours. Expression of the E. coli alleles was high and fairly consistent as visualized by SDS-PAGE.
(§2) The effects of amino acid substitutions at Leu481 in ilvA were assessed by steady state kinetic analysis in the presence and absence of L-isoleucine. Threonine deaminase polypeptides for use in in vitro kinetics studies were extracted from E. coli cells in assay buffer containing 50 mM potassium phosphate (pH7.5), 1 mM dithiothreitol (DTT), and 0.5 mM ethylenediamine-tetraacetate. A continuous assay method was employed to monitor the formation of α-ketobutyrate directly at 230 nm (ε230 (pH7.5)=540 M^−1cm^−1 whereas threonine absorption was negligible (˜1%)). The assay was initiated by adding 20 μl of crude extract diluted 1:20 v/v to the assay vessel containing L-threonine (between 2.5 mM and 50 mM) in a final volume of 1 mL. For L-isoleucine inhibition, L-isoleucine was added between 0 mM and 20 mM. The kinetic parameters were determined by fitting the data points to the equations using GraFit 4.0 software (Erithacus Software, Surrey, UK). For comparison, the kcat values of L481 alleles were normalized to the kcat value for the wild type IlvA enzyme. Enzymes represented in FIG. 7 are: wild type E. coli threonine deaminase (circles), L481Y TD enzyme (diamonds), L481F TD enzyme (triangles), and the L481T TD enzyme (squares). Table 4 also summarizes the kinetic parameters of the variant threonine deaminase enzymes produced by the various E. coli ilvA alleles.

[2] = biological target: T2, E. coli threonine deaminase (ilvA) variant L481T, SEQ ID NO: 8 (Escherichia coli, UniProt P04968, A120R/A140R/G195C/G334V/L481T/V121L); assay: Threonine deaminase steady state kinetics, L481T
T2 construct: made in house; host or cells: E. coli (pSE380, crude extract)
Procedure: as §1
(§3) The effects of amino acid substitutions at Leu481 in ilvA were assessed by steady state kinetic analysis in the presence and absence of L-isoleucine. Threonine deaminase polypeptides for use in in vitro kinetics studies were extracted from E. coli cells in assay buffer containing 50 mM potassium phosphate (pH7.5), 1 mM dithiothreitol (DTT), and 0.5 mM ethylenediamine-tetraacetate. A continuous assay method was employed to monitor the formation of α-ketobutyrate directly at 230 nm (ε230 (pH7.5)=540 M^−1cm^−1 whereas threonine absorption was negligible (˜1%)). […] The kinetic parameters were determined by fitting the data points to the equations using GraFit 4.0 software (Erithacus Software, Surrey, UK). […]

[3] = biological target: T3, E. coli threonine deaminase (ilvA) variant L481E, SEQ ID NO: 7 (Escherichia coli, UniProt P04968, A120R/A140R/G195C/G334V/L481E/V121L); assay: Threonine deaminase steady state kinetics, L481E
T3 construct: made in house; host or cells: E. coli (pSE380, crude extract)
Procedure: as §1, §3

[4] = biological target: T4, E. coli threonine deaminase (ilvA) variant L447F (ilvA219), SEQ ID NO: 3 (Escherichia coli, UniProt P04968, A120R/A140R/G195C/G334V/L447F/V121L); assay: Threonine deaminase steady state kinetics, L447F (ilvA219)
T4 construct: made in house; host or cells: E. coli (crude extract)
T4 sequence (P04968 1-514 A120R/V121L/A140R/G195C/G334V/L447F): T1 sequence (P04968 1-514 A120R/V121L/A140R/G195C/G334V/L481Q) with L447F, Q481L

[5] = biological target: T5, E. coli threonine deaminase (ilvA) variant L481F (ilvA466), SEQ ID NO: 4 (Escherichia coli, UniProt P04968, A120R/A140R/G195C/G334V/L481F/V121L); assay: biochemical
T5 construct: made in house; host or cells: E. coli (pSE380, crude extract)
Procedure: as §1, §3

[6] = biological target: T6, E. coli threonine deaminase (ilvA) variant L481Y, SEQ ID NO: 5 (Escherichia coli, UniProt P04968, A120R/A140R/G195C/G334V/L481Y/V121L); assay: Threonine deaminase steady state kinetics, L481Y
T6 construct: made in house; host or cells: E. coli (pSE380, crude extract)
T6 sequence (P04968 1-514 A120R/V121L/A140R/G195C/G334V/L481Y): T1 sequence (P04968 1-514 A120R/V121L/A140R/G195C/G334V/L481Q) with Q481Y
Procedure: as §1, §2

T3 sequence (P04968 whole entry A120R/V121L/A140R/G195C/G334V/L481E): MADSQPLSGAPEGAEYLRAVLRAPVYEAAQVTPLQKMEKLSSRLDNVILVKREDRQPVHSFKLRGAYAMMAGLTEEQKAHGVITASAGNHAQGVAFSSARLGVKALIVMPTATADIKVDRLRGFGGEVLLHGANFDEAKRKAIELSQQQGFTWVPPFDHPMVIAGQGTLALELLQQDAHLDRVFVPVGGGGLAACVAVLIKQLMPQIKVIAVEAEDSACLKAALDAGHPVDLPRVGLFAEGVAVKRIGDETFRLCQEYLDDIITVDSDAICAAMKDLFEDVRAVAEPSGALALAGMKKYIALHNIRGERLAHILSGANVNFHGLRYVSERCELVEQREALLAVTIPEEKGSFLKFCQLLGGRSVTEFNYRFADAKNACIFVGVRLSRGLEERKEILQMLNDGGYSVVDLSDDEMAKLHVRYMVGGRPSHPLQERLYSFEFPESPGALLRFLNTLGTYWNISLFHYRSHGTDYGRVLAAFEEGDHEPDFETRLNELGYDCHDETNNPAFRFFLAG
T5 sequence (P04968 whole entry A120R/V121L/A140R/G195C/G334V/L481F): as the sequence (P04968 whole entry A120R/V121L/A140R/G195C/G334V/L481E) above, with E481F counted along it
T2 sequence (P04968 whole entry A120R/V121L/A140R/G195C/G334V/L481T): as the sequence (P04968 whole entry A120R/V121L/A140R/G195C/G334V/L481E) above, with E481T counted along it

SMILES | IC50 [1] [µM] | IC50 [2] [µM] | IC50 [3] [µM] | IC50 [4] [µM] | IC50 [5] [µM] | IC50 [6] [µM] | Hill coefficient (n), substrate binding ([1]; L481Q, pMON25865, positive cooperativity) | Km ([1]; read-out: Km^Thr, L481Q, pMON25865, pH 7.5, L-threonine 2.5-50 mM) [mM] | Km ([2]; read-out: Km^Thr, L481T, pMON25866, pH 7.5, L-threonine 2.5-50 mM) [mM] | Km ([3]; read-out: Km^Thr, L481E, pMON25860, pH 7.5, L-threonine 2.5-50 mM) [mM] | Hill coefficient (n), substrate binding ([4]; L447F, pMON25859, negative cooperativity) | Km ([4]; read-out: Km^Thr, L447F, pMON25859, pH 7.5, L-threonine 2.5-50 mM) [mM] | Km ([5]; read-out: Km^Thr, L481F, pMON25857, pH 7.5, L-threonine 2.5-50 mM) [mM] | Hill coefficient (n), substrate binding ([6]; L481Y, pMON25868, degree of cooperativity) | Km ([6]; read-out: Km^Thr, L481Y, pMON25868, pH 7.5, L-threonine 2.5-50 mM) [mM]
CC[C@H](C)[C@H](N)C(=O)O [L-isoleucine] | 188 | 449 | 445 | > 20000 | 800 | 1600 |  |  |  |  |  |  |  |  | 
C[C@@H](O)[C@H](N)C(=O)O [L-threonine] |  |  |  |  |  |  | 1.6 | 8.8 | 3.4 | 3.9 | 0.5 | 1.7 | 4 | 1.1 | 2
